# Laboratory results: patent US20140243334A1, “SUBSTITUTED HYDOXAMIC ACIDS AND USES THEREOF” (Millennium Pharmaceuticals, Inc., priority 2010, published 2014)
# Molecular target: T1, purified human HDAC6 (Homo sapiens, UniProt Q9UBN7)
# T1 construct: purchased BPS Bioscience 5006
# T1 sequence (Q9UBN7 1-1215): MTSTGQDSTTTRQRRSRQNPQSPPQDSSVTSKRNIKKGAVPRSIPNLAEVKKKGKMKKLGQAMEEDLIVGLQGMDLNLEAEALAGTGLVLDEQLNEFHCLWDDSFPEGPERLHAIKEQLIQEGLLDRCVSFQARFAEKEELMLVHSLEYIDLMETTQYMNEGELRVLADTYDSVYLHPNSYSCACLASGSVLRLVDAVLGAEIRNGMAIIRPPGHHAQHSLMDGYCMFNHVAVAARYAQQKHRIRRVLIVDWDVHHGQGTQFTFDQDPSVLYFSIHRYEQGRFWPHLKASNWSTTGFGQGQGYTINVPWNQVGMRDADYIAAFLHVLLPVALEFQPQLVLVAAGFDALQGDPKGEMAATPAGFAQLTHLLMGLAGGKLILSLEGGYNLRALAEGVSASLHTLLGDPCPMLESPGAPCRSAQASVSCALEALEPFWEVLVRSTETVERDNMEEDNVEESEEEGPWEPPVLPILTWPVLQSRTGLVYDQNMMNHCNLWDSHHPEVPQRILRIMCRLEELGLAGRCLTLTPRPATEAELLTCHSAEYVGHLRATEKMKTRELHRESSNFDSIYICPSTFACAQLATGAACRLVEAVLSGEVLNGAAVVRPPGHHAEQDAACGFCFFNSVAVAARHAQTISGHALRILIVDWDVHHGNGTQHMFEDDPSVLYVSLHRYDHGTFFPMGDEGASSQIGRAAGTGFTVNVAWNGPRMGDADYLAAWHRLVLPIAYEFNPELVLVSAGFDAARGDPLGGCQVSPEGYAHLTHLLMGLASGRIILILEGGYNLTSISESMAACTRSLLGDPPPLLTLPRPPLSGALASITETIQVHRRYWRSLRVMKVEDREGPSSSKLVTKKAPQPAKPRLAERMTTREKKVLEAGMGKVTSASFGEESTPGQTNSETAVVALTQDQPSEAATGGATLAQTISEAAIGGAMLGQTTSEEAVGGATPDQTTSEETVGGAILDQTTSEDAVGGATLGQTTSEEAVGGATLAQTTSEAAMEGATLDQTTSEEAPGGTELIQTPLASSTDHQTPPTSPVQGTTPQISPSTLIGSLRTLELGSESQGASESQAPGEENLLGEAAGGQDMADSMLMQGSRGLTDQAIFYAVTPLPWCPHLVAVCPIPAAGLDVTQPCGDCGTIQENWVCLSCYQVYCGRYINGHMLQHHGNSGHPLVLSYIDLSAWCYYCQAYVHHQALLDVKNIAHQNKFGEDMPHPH
# Assay: HDAC6 Enzyme Assay
# Format: biochemical
# Settings: HDAC6 inhibition at a compound concentration of 0.412 μM; read-out: Percent Inhibition at 0.412 μM
# Method: To measure the inhibition of HDAC6 activity, purified human HDAC6 (BPS Bioscience; Cat. No. 5006) is incubated with substrate Ac-Arg-Gly-Lys(Ac)-AMC peptide (Bachem Biosciences; Cat. No. I-1925) for 1 hour at 30° C. in the presence of test compounds or vehicle DMSO control. The reaction is stopped with the HDAC inhibitor trichostatin A (Sigma; Cat. No. T8552) and the amount of Arg-Gly-Lys-AMC generated is quantitated by digestion with trypsin (Sigma; Cat. No. T1426) and subsequent measurement of the amount of AMC released using a fluorescent plate reader (Pherastar; BMG Technologies) set at Ex 340 nm and Em 460 nm. Concentration response curves are generated by calculating the fluorescence increase in test compound-treated samples relative to DMSO-treated controls, and enzyme inhibition (IC50) values are determined from those curves.
row,inhibition at 0.412 µM [%],Structure (SMILES)
1,72,"O=C(NO)C1CCc2ccc(-c3ccoc3)cc2C1 (centres unmarked) [Compound I-103, 7-(3-furyl)-N-hydroxy-1,2,3,4-tetrahydronaphthalene-2-carboxamide]"
2,73,"O=C(NO)C1CCc2ccc(-c3ccc4ccccc4c3)cc2C1 (centres unmarked) [Compound I-86, N-hydroxy-5,6,7,8-tetrahydro-2,2′-binaphthalene-7-carboxamide]"
3,75,"CN(C)C(=O)c1ccc(-c2ccc3c(c2)CC(C(=O)NO)CC3)cc1F (centres unmarked) [Compound I-108, 7-{4-[(dimethylamino)carbonyl]-3-fluorophenyl}-N-hydroxy-1,2,3,4-tetrahydronaphthalene-2-carboxamide]"
4,90,"CC(C)(C)C(=O)Nc1cccc(-c2ccc3c(c2)CC(C(=O)NO)CC3)c1 (centres unmarked) [Compound I-63, 7-{3-[(2,2-dimethylpropanoyl)amino]phenyl}-N-hydroxy-1,2,3,4-tetrahydronaphthalene-2-carboxamide]"
5,69,"O=C(NO)C1CCc2ccc(-c3ccc(F)c(Cl)c3)cc2C1 (centres unmarked) [Compound I-119, 7-(3-chloro-4-fluorophenyl)-N-hydroxy-1,2,3,4-tetrahydronaphthalene-2-carboxamide]"
6,79,"COc1ccc(-c2ccc3c(c2)CC(C(=O)NO)CC3)cc1 (centres unmarked) [Compound I-69, N-hydroxy-7-(4-methoxyphenyl)-1,2,3,4-tetrahydronaphthalene-2-carboxamide]"
7,74,"O=C(NO)C1CCc2ccc(-c3ccc(S(=O)(=O)N4CCOCC4)cc3)cc2C1 (centres unmarked) [Compound I-117, N-hydroxy-7-[4-(morpholin-4-ylsulfonyl)phenyl]-1,2,3,4-tetrahydronaphthalene-2-carboxamide]"
8,85,"O=C(NO)C1CCc2ccc(-c3cnc4[nH]ccc4c3)cc2C1 (centres unmarked) [Compound I-87, N-hydroxy-7-(1H-pyrrolo[2,3-b]pyridin-5-yl)-1,2,3,4-tetrahydronaphthalene-2-carboxamide]"
9,85,"CC(=O)Nc1cccc(-c2ccc3c(c2)CCC(C(=O)NO)C3)c1 (centres unmarked) [Compound I-74, 6-[3-(acetylamino)phenyl]-N-hydroxy-1,2,3,4-tetrahydronaphthalene-2-carboxamide]"
10,83,"CN(C)C(=O)c1cc(-c2ccc3c(c2)CC(C(=O)NO)CC3)ccc1Cl (centres unmarked) [Compound I-115, 7-{4-chloro-3-[(dimethylamino)carbonyl]phenyl}-N-hydroxy-1,2,3,4-tetrahydronaphthalene-2-carboxamide]"
11,89,"O=C(NO)C1CCc2ccc(-c3ccc4[nH]cnc4c3)cc2C1 (centres unmarked) [Compound I-81, 7-(1H-benzimidazol-5-yl)-N-hydroxy-1,2,3,4-tetrahydronaphthalene-2-carboxamide]"
12,82,"O=C(NO)C1CCc2ccc(Oc3ccc(NC(=O)C4CC4)cc3)cc2C1 (centres unmarked) [Compound I-56, 7-{4-[(cyclopropylcarbonyl)amino]phenoxy}-N-hydroxy-1,2,3,4-tetrahydronaphthalene-2-carboxamide]"
13,81,"COc1cccc(-c2ccc3c(c2)CC(C(=O)NO)CC3)c1 (centres unmarked) [Compound I-67, N-hydroxy-7-(3-methoxyphenyl)-1,2,3,4-tetrahydronaphthalene-2-carboxamide]"
14,82,"O=C(NO)C1CCc2ccc(-c3cccc(Cl)c3)cc2C1 (centres unmarked) [Compound I-49, 7-(3-chlorophenyl)-N-hydroxy-1,2,3,4-tetrahydronaphthalene-2-carboxamide]"
15,62,"CCCc1ccc(-c2ccc3c(c2)CC(C(=O)NO)CC3)cc1 (centres unmarked) [Compound I-94, N-hydroxy-7-(4-propylphenyl)-1,2,3,4-tetrahydronaphthalene-2-carboxamide]"
16,80,"O=C(NO)C1CCc2cc(-c3ccncc3)ccc2C1 (centres unmarked) [Compound I-66, N-hydroxy-6-pyridin-4-yl-1,2,3,4-tetrahydronaphthalene-2-carboxamide]"

# Continued, molecule first:
row,Structure (SMILES),inhibition at 0.412 µM [%]
1,"CN(C)CCOc1cccc(Oc2ccc3c(c2)CC(C(=O)NO)CC3)c1 (centres unmarked) [Compound I-46, 7-{3-[2-(dimethylamino)ethoxy]phenoxy}-N-hydroxy-1,2,3,4-tetrahydronaphthalene-2-carboxamide]",78
2,"O=C1CCc2c(Oc3ccc4c(c3)C[C@@H](C(=O)NO)CC4)ccnc2N1 [Compound I-4, (2S)—N-hydroxy-7-[(7-oxo-5,6,7,8-tetrahydro-1,8-naphthyridin-4-yl)oxy]-1,2,3,4-tetrahydronaphthalene-2-carboxamide]",85
3,"O=C(NO)C1CCc2ccc(C#Cc3ccccc3)cc2C1 (centres unmarked) [Compound I-34, N-hydroxy-7-(phenylethynyl)-1,2,3,4-tetrahydronaphthalene-2-carboxamide]",57
4,"O=C(NO)C1CCc2ccc(Oc3ccccc3)cc2C1 (centres unmarked) [Compound I-8, N-hydroxy-7-phenoxy-1,2,3,4-tetrahydronaphthalene-2-carboxamide]",73
5,"CC1(C(=O)Nc2ccc3c(c2)CC(C(=O)NO)CC3)CCNCC1 (centres unmarked) [Compound I-18, N-{7-[(hydroxyamino)carbonyl]-5,6,7,8-tetrahydronaphthalen-2-yl}-4-methylpiperidine-4-carboxamide]",54
6,"Cc1ccc(-c2ccc3c(c2)CC(C(=O)NO)CC3)c2ccccc12 (centres unmarked) [Compound I-98, N-hydroxy-4-methyl-5′,6′,7′,8′-tetrahydro-1,2′-binaphthalene-7′-carboxamide]",78
7,"O=C(NO)C1CCc2ccc(NC(=O)C3CC3)cc2C1 (centres unmarked) [Compound I-22, 7-[(cyclopropylcarbonyl)amino]-N-hydroxy-1,2,3,4-tetrahydronaphthalene-2-carboxamide]",72
8,"O=C(NO)C1CCc2ccc(Nc3ccncc3)cc2C1 (centres unmarked) [Compound I-33, N-hydroxy-7-(pyridin-4-ylamino)-1,2,3,4-tetrahydronaphthalene-2-carboxamide]",57
9,"O=C(NO)C1CCc2ccc(-c3csc4ccccc34)cc2C1 (centres unmarked) [Compound I-96, 7-(1-benzothien-3-yl)-N-hydroxy-1,2,3,4-tetrahydronaphthalene-2-carboxamide]",79
10,"COc1ccc2c(c1)CCC(C(=O)NO)C2 (centres unmarked) [Compound I-10, N-hydroxy-6-methoxy-1,2,3,4-tetrahydronaphthalene-2-carboxamide]",32
11,"CN(C)CCOc1cccc(-c2ccc3c(c2)CC(C(=O)NO)CC3)c1 (centres unmarked) [Compound I-58, 7-{3-[2-(dimethylamino)ethoxy]phenyl}-N-hydroxy-1,2,3,4-tetrahydronaphthalene-2-carboxamide]",87
12,"O=C(Nc1cc(Oc2ccc3c(c2)C[C@@H](C(=O)NO)CC3)ccn1)C1CC1 [Compound I-2, (2S)-7-({2-[(cyclopropylcarbonyl)amino]pyridin-4-yl}oxy)-N-hydroxy-1,2,3,4-tetrahydronaphthalene-2-carboxamide]",90
13,"O=C(NO)C1CCc2ccccc2C1 (centres unmarked) [Compound I-3, N-hydroxy-1,2,3,4-tetrahydronaphthalene-2-carboxamide]",33
14,"CC(C)(C)OC(=O)Nc1cccc(-c2ccc3c(c2)CC(C(=O)NO)CC3)c1 (centres unmarked) [Compound I-62, tert-butyl (3-{7-[(hydroxyamino)carbonyl]-5,6,7,8-tetrahydronaphthalen-2-yl}phenyl)carbamate]",82
15,"CC1(C(=O)Nc2ccc3c(c2)CCC(C(=O)NO)C3)CCNCC1 (centres unmarked) [Compound I-85, N-{6-[(hydroxyamino)carbonyl]-5,6,7,8-tetrahydronaphthalen-2-yl}-4-methylpiperidine-4-carboxamide]",74
16,"O=C(NO)C1CCc2ccc(-c3cc4ccccc4s3)cc2C1 (centres unmarked) [Compound I-61, 7-(1-benzothien-2-yl)-N-hydroxy-1,2,3,4-tetrahydronaphthalene-2-carboxamide]",73
